Patent publication US11369593B2 (Texas Tech University System, priority 2017, dated 2022)

How the values were obtained:
PC12 cells [1] = experiment: Etoposide-induced apoptosis in PC12 cells, cell viability; assay type: cell-based; conditions: for protective activity in WT PC12 etoposide assay: WT PC12 cells
PC12 cells [2] = experiment: Serum starvation-induced apoptosis in PC12 cells, cell viability; assay type: cell-based; conditions: Rattus norvegicus
[3] = test system: CLN3 siRNA knock down PC12 cells; experiment: Protective effect in siRNA CLN3 knock down PC12 cells; assay type: cell-based; conditions: FIG. 3A
From the text: (§1) FIGS. 3A and 3B show the neuroprotective effect of selected compounds in phenotypic cell lines. In FIG. 3A, the protective effect is shown in siRNA CLN3 knock down PC12 cells. In FIG. 3B the protective effect is shown in wild-type (WT) and CLN3 knock down mouse fibroblasts. Values are represented as mean±SD. *P<0.05, **p<0.01, ***p<0.001 compared to vehicle control, unpaired student t test.
(§2) Protective Effect in Phenotypic Cell Lines. […] The inventors screened a number of compounds in both neuron-like CLN3 siRNA knock down PC12 cells (FIG. 3A) and CLN3 knockdown mouse fibroblasts (FIG. 3B) as phenotypic models of JNCL. […] FIGS. 3A and 3B show the neuroprotective effect of selected compounds in phenotypic cell lines. In FIG. 3A, the protective effect is shown in siRNA CLN3 knock down PC12 cells. In FIG. 3B the protective effect is shown in wild-type (WT) and CLN3 knock down mouse fibroblasts. Values are represented as mean±SD. *P<0.05, **p<0.01, ***p<0.001 compared to vehicle control, unpaired student t test. […] Selected derivatives show greater protective effect than flupirtine in patient lympoblast cells in CLN1, CLN2, CLN3, CLN6 and CLN8 disease (FIGS. 4A to 4E). FIGS. 4A to 4E show the percentage of patient lymphoblast cells (%), using Trypan Blue dye with Flupirtine (20 μM, vehicle %1 EtOH), drug 3 (20 μM, vehicle %1 EtOH), drug 5 (50 μM, vehicle %4 DMSO) or drug 6 (20 μM, vehicle %4 DMSO) at 24 h. CLN1 (FIG. 4A), CLN2 (FIG. 4B), CLN3 (FIG. 4C), CLN6 (FIG. 4D), and CLN8 (FIG. 4E).

[4] = test system: CLN3 knockdown mouse fibroblasts; experiment: Protective effect in CLN3 knock down mouse fibroblasts; assay type: cell-based; conditions: FIG. 3B
From the text: as §1, §2

PC12 cells [5] = experiment: ROS in PC12 cells, CellROX green / DAPI staining after H2O2; assay type: cell-based; conditions: 400 μM H2O2 for 4 hours, FIG. 5A
Procedure: PC12 cells stained with CellROX and DAPI-blue nuclear stain. Greater intensity of green fluorescence indicates greater levels of ROS. Visualized through a microscope (40× magnification, bar=100 μM).
While flupirtine and retigabine are known antioxidants the inventors have shown (FIGS. 5A and 5B) that neuroprotective derivatives operate by a different mechanism of action. […] PC12 cells stained with CellROX and DAPI-blue nuclear stain. Greater intensity of green fluorescence indicates greater levels of ROS. Visualized through a microscope (40× magnification, bar=100 μM).

IMR-90-derived neurons = assay type: cell-based, human
From the text: The disclosed technology encompasses multiple derivatives of both flupirtine and retigabine. […] The inventors provide further insight into the derivatives from both original molecules. […] By way of explanation, and in no way a limitation of the present invention, the inventors have shown that the derivatives are active in two ways: they (1) upregulate expression of the anti-apoptotic protein Bcl-2 and ceramide pathway synthesis enzymes, and (2) activate autophagy.

[6] = Rattus norvegicus, PC-12, 1 μM compound, etoposide-induced apoptosis, PC12 cells, read-out: % Viability 1 μM
[7] = Rattus norvegicus, PC-12, 3 μM compound, etoposide-induced apoptosis, PC12 cells, read-out: % Viability 3 μM
[8] = Rattus norvegicus, PC-12, 10 μM compound, etoposide-induced apoptosis, PC12 cells, read-out: % Viability 10 μM
[9] = Rattus norvegicus, PC-12, 30 μM compound, etoposide-induced apoptosis, PC12 cells, read-out: % Viability 30 μM
[10] = PC-12, 1 μM compound, serum starvation-induced apoptosis, PC12 cells, vehicle 55.04 ± 8.99, read-out: % Viability 1 μM
[11] = PC-12, 3 μM compound, serum starvation-induced apoptosis, PC12 cells, read-out: % Viability 3 μM
[12] = PC-12, 10 μM compound, serum starvation-induced apoptosis, PC12 cells, read-out: % Viability 10 μM
[13] = PC-12, 30 μM compound, serum starvation-induced apoptosis, PC12 cells, read-out: % Viability 30 μM

| SMILES | viability at 1 µM (PC12 cells [1]; [6]) [%] | viability at 3 µM (PC12 cells [1]; [7]) [%] | viability at 10 µM (PC12 cells [1]; [8]) [%] | viability at 30 µM (PC12 cells [1]; [9]) [%] | protective activity in WT PC12 etoposide assay (PC12 cells [1]) | viability at 1 µM (PC12 cells [2]; [10]) [%] | viability at 3 µM (PC12 cells [2]; [11]) [%] | viability at 10 µM (PC12 cells [2]; [12]) [%] | viability at 30 µM (PC12 cells [2]; [13]) [%] | amelioration of reactive oxygen species (ROS) (PC12 cells [5]) | other results |
| --- | --- | --- | --- | --- | --- | --- | --- | --- | --- | --- | --- |
| Nc1nc(NCc2ccc(F)cc2)ccc1NC(=O)OCc1ccccc1 [NK-10-1, Benzyl 6-(4-fluorobenzylamino)-2-aminopyridin-3-ylcarbamate] | 60.1 ± 7.91 | 82 ± 4.43 | 66.2 ± 6.26 | 57.4 ± 2.24 | greater neuroprotective activity | 93.4 ± 12.4 | 90.4 ± 11.2 | 92.7 ± 12.8 | 96.1 ± 15.3 | no amelioration of reactive oxygen species (ROS) | protective activity [3]: greater activity than flupirtine; protective activity [4]: greater activity than flupirtine |
| CCOC(=O)Nc1ccc(NCc2ccc(C(F)(F)F)cc2)nc1N [NK-40-3, Ethyl (2-amino-6-((4-(trifluoromethyl)benzyl)amino)pyridin-3-yl)carbamate] | 82.7 ± 8.82 | 71.5 ± 4.99 | 97.3 ± 22.8 | 106 ± 15.8 | – | – | – | – | – | – | concentration providing protection from etoposide-induced cell death (PC12 cells [1]; PC12 cells): 0.1 µM; viability at 0.1 µM (PC12 cells [1]; Rattus norvegicus, PC-12, 0.1 μM compound, etoposide-induced apoptosis, PC12 cells, vehicle 52.1 ± 7.32): 85.8 ± 11.8%; viability at 0.3 µM (PC12 cells [1]; Rattus norvegicus, PC-12, 0.3 μM compound, etoposide-induced apoptosis, PC12 cells): 109 ± 17.3%; concentration with neuroprotective activity (as low as) (IMR-90-derived neurons; human IMR-90-derived neurons): 0.1 µM |
| CCOC(=O)Nc1ccc(NCc2ccc(Cl)cc2)nc1N [NK-4-3, Ethyl (2-amino-6-((4-chlorobenzyl)amino)pyridin-3-yl)carbamate] | 65.7 ± 16.2 | 64.3 ± 4.28 | 52.6 ± 10.3 | 41.5 ± 6.14 | less active than compounds NK-10-1 and NK-12-1 | 78 ± 9.61 | 79.3 ± 5.5 | 86.5 ± 11.5 | 86.6 ± 5.32 | – | activity in iPSC/IMR-90-derived neurons (IMR-90-derived neurons; 15 ug/mL etoposide for 36 hours, FIG. 2): less active |
| C=CCOC(=O)Nc1ccc(NCc2ccc(F)cc2)nc1N [NK-12-1, Allyl 6-(4-fluorobenzylamino)-2-aminopyridin-3-ylcarbamate] | 65.5 ± 8.19 | 86.8 ± 9.05 | 67.5 ± 22.6 | 45.2 ± 8.92 | greater neuroprotective activity | 108 ± 10.3 | 88.6 ± 8.26 | 82.2 ± 11.8 | 92.6 ± 12.3 | no amelioration of reactive oxygen species (ROS) | protective activity [3]: greater activity than flupirtine; protective activity [4]: greater activity than flupirtine |
| CCOC(=O)Nc1ccc(NCc2ccc(F)cc2)cc1N [NK-22-13, Ethyl (2-amino-4-((4-fluorobenzyl)amino)phenyl)carbamate, reference compound] | – | – | – | – | – | – | – | – | – | do ameliorate ROS | viability at 1 µM (PC12 cells [1]; Rattus norvegicus, PC-12, read-out: % Viability 1 μM): 58.3 ± 2.86%; viability at 3 µM (PC12 cells [1]; Rattus norvegicus, PC-12, read-out: % Viability 3 μM): 73.9 ± 13.9%; viability at 10 µM (PC12 cells [1]; Rattus norvegicus, PC-12, read-out: % Viability 10 μM): 66.3 ± 17.6%; viability at 30 µM (PC12 cells [1]; Rattus norvegicus, PC-12, read-out: % Viability 30 μM): 52.1 ± 7.62%; viability at 1 µM (PC12 cells [2]; PC-12, read-out: % Viability 1 μM): 75.9 ± 15%; viability at 3 µM (PC12 cells [2]; PC-12, read-out: % Viability 3 μM): 77.9 ± 22.6%; viability at 10 µM (PC12 cells [2]; PC-12, read-out: % Viability 10 μM): 85.8 ± 17.9%; viability at 30 µM (PC12 cells [2]; PC-12, read-out: % Viability 30 μM): 76.2 ± 25% |
| CC(Cl)OC(=O)Nc1ccc(NCc2ccc(F)cc2)nc1N (centres unmarked) [NK-21-1, 1-chloroethyl 6-(4-fluorobenzylamino)-2-aminopyridin-3-ylcarbamate] | 69.5 ± 13.2 | 88.9 ± 21.5 | 84.3 ± 32.2 | 84.8 ± 33.7 | – | 74.2 ± 11.5 | 75.6 ± 13.4 | 91.7 ± 6.31 | 84 ± 13.8 | – | – |
| CCOC(=O)Nc1ccc(NCc2cccc(C(F)(F)F)c2)nc1N [NK-16-3, Ethyl 6-(3-(trifluoromethyl)benzylamino)-2-aminopyridin-3-ylcarbamate] | 59.9 ± 13.8 | 68.2 ± 7.5 | 60.4 ± 19.4 | 46.4 ± 12.8 | – | 83.6 ± 14.3 | 80.7 ± 8.11 | 86.9 ± 9.07 | 84.2 ± 16.1 | – | – |
| C=CCOC(=O)Nc1ccc(NCc2cccc(C(F)(F)F)c2)nc1N [NK-16-6, Allyl 6-(3-(trifluoromethyl)benzylamino)-2-aminopyridin-3-ylcarbamate] | 78 ± 37.1 | 107 ± 2.3 | 101 ± 9.58 | 87.6 ± 21.9 | provides greater activity | 77.1 ± 12.1 | 87.8 ± 10 | 92 ± 13 | 74.5 ± 11.9 | – | – |
| CCCOC(=O)Nc1ccc(NCc2ccc(F)cc2)cc1N [NK-30-2, Propyl (2-amino-4-((4-fluorobenzyl)amino)phenyl)carbamate] | 54.1 ± 9.34 | 55.6 ± 7.41 | 61.6 ± 4.82 | 61.6 ± 18.1 | – | 70.4 ± 3.39 | 78.3 ± 7.18 | 84.6 ± 4.75 | 76.2 ± 1.61 | – | – |
| CC(C)COC(=O)Nc1ccc(NCc2ccc(F)cc2)nc1N [NK-8-1, Isobutyl 6-(4-fluorobenzylamino)-2-aminopyridin-3-ylcarbamate] | 57.9 ± 22.4 | 62.9 ± 2.98 | 46.5 ± 3.36 | 56.1 ± 0.67 | – | 67.9 ± 12.6 | 77.4 ± 11.7 | 89.7 ± 6.68 | 88.3 ± 10.8 | – | – |
